Laboratory results from patent US12583861B2, “Derivatives of imidazo[4,5-d]pyridazine, their preparation and their therapeutic application” (SANOFI, priority 2021, dated 2026).
Where a name gives a salt, the structure may show the parent alone.

Columns and labels:
[1] = target: T1, human TLR8 (Homo sapiens, UniProt Q9NR97); experiment: HEK-Blue hTLR8 reporter cell assay (SEAP, NF-kB/AP-1) for stimulation of human TLR8; assay type: cell-based; conditions: HEK-Blue hTLR8 cells; for EC50: 24 h incubation, SEAP readout, read-out: TLR8_EC50
T1 construct: host or cells: HEK293 (HEK-Blue hTLR8)
T1 sequence (Q9NR97 27-1041): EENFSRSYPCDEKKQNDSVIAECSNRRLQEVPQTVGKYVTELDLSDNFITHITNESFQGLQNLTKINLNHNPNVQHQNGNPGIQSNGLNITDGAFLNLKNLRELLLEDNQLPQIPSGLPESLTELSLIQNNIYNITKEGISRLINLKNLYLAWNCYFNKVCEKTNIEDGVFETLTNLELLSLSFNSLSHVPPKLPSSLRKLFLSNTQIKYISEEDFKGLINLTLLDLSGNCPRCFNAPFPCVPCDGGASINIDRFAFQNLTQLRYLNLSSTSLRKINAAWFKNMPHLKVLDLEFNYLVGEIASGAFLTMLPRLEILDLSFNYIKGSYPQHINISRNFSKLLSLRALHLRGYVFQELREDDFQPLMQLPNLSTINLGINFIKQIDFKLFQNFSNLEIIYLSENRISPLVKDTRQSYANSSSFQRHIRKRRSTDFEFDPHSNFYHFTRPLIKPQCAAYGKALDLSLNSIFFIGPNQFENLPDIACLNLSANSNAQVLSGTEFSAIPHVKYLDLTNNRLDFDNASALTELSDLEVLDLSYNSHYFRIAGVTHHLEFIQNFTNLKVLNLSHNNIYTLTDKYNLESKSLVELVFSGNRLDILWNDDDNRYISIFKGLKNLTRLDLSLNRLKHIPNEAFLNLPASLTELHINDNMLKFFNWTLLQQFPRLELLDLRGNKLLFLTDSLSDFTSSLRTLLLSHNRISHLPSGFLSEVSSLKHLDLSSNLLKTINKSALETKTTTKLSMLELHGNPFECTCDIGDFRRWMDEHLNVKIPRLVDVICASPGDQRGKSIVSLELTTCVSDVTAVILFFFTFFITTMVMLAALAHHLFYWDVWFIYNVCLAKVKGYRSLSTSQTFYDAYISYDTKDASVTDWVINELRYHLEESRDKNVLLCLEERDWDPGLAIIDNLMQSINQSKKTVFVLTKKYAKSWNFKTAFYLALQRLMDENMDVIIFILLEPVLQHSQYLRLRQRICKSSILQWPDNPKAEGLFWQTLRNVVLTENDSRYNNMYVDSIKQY
Procedure: (§1) The below tests, involving measuring the in vitro activity of some compounds of the disclosure on TLR7 and TLR8, were carried out using the HEK-Blue™ cells as reporter.
(§2) In Vitro Assay for Studying the Stimulation of Human TLR7 and TLR8:
HEK-Blue™ hTLR7 Cells (#hkb-htlr7) and HEK-Blue™ hTLR8 Cells (#hkb-htlr8) from InvivoGen were used according to the manufacturer's instructions. These Reporter HEK293 cells were obtained by co-transfection of the hTLR7 or TLR8 gene and an optimized Secreted Embryonic Alkaline Phosphatase (SEAP) reporter gene which is placed under the control of the IFN-β minimal promoter fused to five NF-κB and AP-1-binding sites. Stimulation with a TLR7/8 ligand activates NF-kB and AP-1 which induce the production of SEAP. The cells are seeded in 96-well plate at 3.10E4 cells/well and incubated 18 to 24 h at 37° C., 5% CO2 before adding the compounds to evaluate. […] Next, 20 μL of the supernatant is harvested and incubated with 200 μL of QUANTI-Blue™ Solution.

[2] = target: T2, human TLR7 (Homo sapiens, UniProt Q9NYK1); experiment: HEK-Blue hTLR7 reporter cell assay (SEAP, NF-kB/AP-1) for stimulation of human TLR7; assay type: cell-based; conditions: HEK-Blue hTLR7 cells, 24 h incubation, SEAP readout; read-out: TLR7_EC50
T2 construct: host or cells: HEK293 (HEK-Blue hTLR7)
T2 sequence (Q9NYK1 27-1049): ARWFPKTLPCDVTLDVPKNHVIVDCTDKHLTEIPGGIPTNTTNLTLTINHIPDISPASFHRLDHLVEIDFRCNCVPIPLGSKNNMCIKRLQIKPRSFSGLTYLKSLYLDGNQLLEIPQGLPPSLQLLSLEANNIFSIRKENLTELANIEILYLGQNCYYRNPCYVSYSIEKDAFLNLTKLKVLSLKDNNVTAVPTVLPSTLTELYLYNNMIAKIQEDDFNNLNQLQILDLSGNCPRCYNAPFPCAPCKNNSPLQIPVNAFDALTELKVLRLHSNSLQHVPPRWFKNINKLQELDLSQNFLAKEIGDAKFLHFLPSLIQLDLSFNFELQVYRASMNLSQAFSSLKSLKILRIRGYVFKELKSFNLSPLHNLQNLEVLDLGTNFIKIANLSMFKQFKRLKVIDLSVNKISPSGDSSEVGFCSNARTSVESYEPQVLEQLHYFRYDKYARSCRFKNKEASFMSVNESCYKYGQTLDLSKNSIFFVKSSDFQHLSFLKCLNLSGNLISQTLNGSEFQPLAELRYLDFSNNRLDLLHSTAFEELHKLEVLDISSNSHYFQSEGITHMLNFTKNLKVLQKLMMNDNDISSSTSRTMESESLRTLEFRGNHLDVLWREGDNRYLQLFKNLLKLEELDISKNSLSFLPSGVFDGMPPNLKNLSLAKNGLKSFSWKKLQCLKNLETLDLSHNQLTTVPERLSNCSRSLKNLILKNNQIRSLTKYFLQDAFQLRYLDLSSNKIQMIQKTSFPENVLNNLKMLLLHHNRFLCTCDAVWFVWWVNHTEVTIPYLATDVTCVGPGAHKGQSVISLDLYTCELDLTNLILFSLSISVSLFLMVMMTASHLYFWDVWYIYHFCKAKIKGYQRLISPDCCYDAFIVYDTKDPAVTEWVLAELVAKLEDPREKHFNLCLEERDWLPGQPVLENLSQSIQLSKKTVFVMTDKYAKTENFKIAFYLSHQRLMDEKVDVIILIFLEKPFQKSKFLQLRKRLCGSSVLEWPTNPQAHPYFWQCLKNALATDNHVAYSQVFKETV
Procedure: as §1
The activity described below, with respect to TLR7, TLR8, IFN-α2a, IL-6, IL29 and TNF-α, is given by the half maximal effective concentration (EC50), which corresponds to the concentration required to obtain a 50% of the activation. The lower the EC50, the less the concentration of the compound is required to produce 50% of maximum activation and the higher the potency.
as §2
HEK-Blue™ hTLR7 Cells (#hkb-htlr7) and HEK-Blue™ hTLR8 Cells (#hkb-htlr8) from InvivoGen were used according to the manufacturer's instructions. These Reporter HEK293 cells were obtained by co-transfection of the hTLR7 or TLR8 gene and an optimized Secreted Embryonic Alkaline Phosphatase (SEAP) reporter gene which is placed under the control of the IFN-β minimal promoter fused to five NF-κB and AP-1-binding sites. Stimulation with a TLR7/8 ligand activates NF-kB and AP-1 which induce the production of SEAP. The cells are seeded in 96-well plate at 3.10E4 cells/well and incubated 18 to 24 h at 37° C., 5% CO2 before adding the compounds to evaluate. The cells are subsequently incubated with 3-fold serial dilutions of each of the compounds (0.01 to 20 μM) for 24 hours at 37° C., 5% CO2. Next, 20 μL of the supernatant is harvested and incubated with 200 μL of QUANTI-Blue™ Solution.

SMILES | EC50 [1] | EC50 [2] | activation at 20 µM ([1]; 24 h, at 20000 nM)
CCCCc1nc2c(N)nnc(OC(C)C)c2n1Cc1ccc(CNC(=O)OCc2ccc(OC)cc2)cc1 [Compound 112, 4-methoxybenzyl (4-((4-amino-2-butyl-7-isopropoxy-1H-imidazo[4,5-d]pyridazin-1-yl)methyl)benzyl)carbamate] | > 20000 nM | 248 nM | 
CCCCc1nc2c(N)nnc(SC(C)C)c2[nH]1 [Compound 99, 2-butyl-7-(isopropylthio)-1H-imidazo[4,5-d]pyridazin-4-amine] |  | 13600 nM | 18%
CCCCc1nc2c(N)nnc(N3CCC(c4ccc(CO)cc4)C3)c2n1C (stereo not drawn) [Compound 85, (4-(1-(4-amino-2-butyl-1-methyl-1H-imidazo[4,5-d]pyridazin-7-yl)pyrrolidin-3-yl)phenyl)methanol hydrochloride] | 3100 nM | 606 nM | 
CCCCc1nc2c(N)nnc(C3CCCCC3)c2n1Cc1ccc(OC)cc1 [Compound 51, 2-butyl-7-cyclohexyl-1-(4-methoxybenzyl)-1H-imidazo[4,5-d]pyridazin-4-amine] | > 20000 nM | 1020 nM | 
CCCCc1nc2c(N)nnc(OC3CCSC3)c2n1Cc1ccc(OC)cc1 (stereo not drawn) [Compound 58, 2-butyl-1-(4-methoxybenzyl)-7-((tetrahydrothiophen-3-yl)oxy)-1H-imidazo[4,5-d]pyridazin-4-amine] | > 20000 nM | 433 nM | 
CCCCc1nc2c(N)nnc(OC)c2n1Cc1ccc(OC)cc1 [Compound 50, 2-butyl-7-methoxy-1-(4-methoxybenzyl)-1H-imidazo[4,5-d]pyridazin-4-amine] | > 20000 nM | 269 nM | 
CCCCc1nc2c(N)nnc(-c3ccn(C)c3)c2n1Cc1ccc(OC)cc1 [Compound 11, 2-butyl-1-(4-methoxybenzyl)-7-(1-methyl-1H-pyrrol-3-yl)-1H-imidazo[4,5d]pyridazin-4-amine] | > 20000 nM | 192 nM | 
CCCCc1nc2c(N)nnc(OC(C)C)c2n1Cc1cccc(CNC(C)C)c1 [Compound 128, 2-butyl-7-isopropoxy-1-(3-((isopropylamino)methyl)benzyl)-1H-imidazo[4,5-d]pyridazin-4-amine dihydrochloride salt] | > 20000 nM | 5980 nM | 
CCCCc1nc2c(N)nnc(C3=CCOC3)c2n1Cc1ccc(OC)cc1 [Compound 73, 2-butyl-7-(2,5-dihydrofuran-3-yl)-1-(4-methoxybenzyl)-1H-imidazo[4,5-d]pyridazin-4-amine] | > 20000 nM | 10100 nM | 
CCCCc1nc2c(N)nnc(OCc3ccccc3)c2n1Cc1ccc(OC)cc1 [Compound 52, 7-(benzyloxy)-2-butyl-1-(4-methoxybenzyl)-1H-imidazo[4,5-d]pyridazin-4-amine] | > 20000 nM | 551 nM | 
CCC[S+]([O-])c1nc2c(N)nnc(OC(C)C)c2n1Cc1ccc(CN)cc1 (stereo not drawn) [Compound 162, 3-[[4-(aminomethyl)phenyl]methyl]-4-isopropoxy-2-propylsulfinyl-imidazo[4,5-d]pyridazin-7-amine] | > 20000 nM | 6700 nM | 

More lines, in order of falling EC50 [2], values ahead:

EC50 [1] | EC50 [2] | activation at 20 µM ([1]; 24 h, at 20000 nM) | SMILES
8880 nM | 190 nM |  | CCCCc1nc2c(N)nnc(OC(C)C)c2n1Cc1ccc(CNCC(=O)OC(C)(C)C)cc1 [Compound 117, tert-butyl (4-((4-amino-2-butyl-7-isopropoxy-1H-imidazo[4,5-d]pyridazin-1-yl)methyl)benzyl)glycinate]
> 20000 nM | 145 nM |  | CCCCc1nc2c(N)nnc(/C=C/C(C)C)c2n1C[C@H]1CC[C@H](CN)CC1 [Compound 137, 1-(((1R,4R)-4-(aminomethyl)cyclohexyl)methyl)-2-butyl-7-((E)-3-methylbut-1-en-1-yl)-1H-imidazo[4,5-d]pyridazin-4-amine]
2130 nM | 143 nM |  | CCCCc1nc2c(N)nnc(OC(C)C)c2n1Cc1ccc(CNCCC(=O)OC(C)(C)C)cc1 [Compound 119, tert-butyl 3-((4-((4-amino-2-butyl-7-isopropoxy-1H-imidazo[4,5-d]pyridazin-1-yl)methyl)benzyl)amino)propanoate]
> 20000 nM | 120 nM |  | CCCCc1nc2c(N)nnc(OC(C)C)c2n1Cc1ccc(CNC(=O)NCC)cc1 [Compound 113, 1-(4-((4-amino-2-butyl-7-isopropoxy-1H-imidazo[4,5-d]pyridazin-1-yl)methyl)benzyl)-3-ethylurea]
179 nM | 93 nM |  | CCCCc1nc2c(N)nnc(OC(C)C)c2n1Cc1cccc(CNC2CC2)c1 [Compound 127, 2-butyl-1-(3-((cyclopropylamino)methyl)benzyl)-7-isopropoxy-1H-imidazo[4,5-d]pyridazin-4-amine dihydrochloride salt]
243 nM | 50 nM |  | CCCCCCNCc1ccc(Cn2c(CCCC)nc3c(N)nnc(OC(C)C)c32)cc1 [Compound 109, 2-butyl-1-(4-((hexylamino)methyl)benzyl)-7-isopropoxy-1H-imidazo[4,5-d]pyridazin-4-amine]
> 20000 nM | 34.6 nM |  | CCCCc1nc2c(N)nnc(OC(C)C)c2n1CCCCCCN(C(C)=O)C1CCOCC1 [Compound 148, N-[6-(7-amino-2-butyl-4-isopropoxy-imidazo[4,5-d]pyridazin-3-yl)hexyl]-N-tetrahydropyran-4-yl-acetamide]
